Consider 16 molecules from patent US9180115B2, “Cyclohexylamines” (Asana Biosciences, LLC, priority 2011, dated 2015).

The subject of the experiment is sodium channel response in hTRPV1-N1E115 cells. Kind of experiment: FLIPR membrane potential assay of sodium channel response in hTRPV1-N1E115 cells with or without heat (47° C.) activation. The format is cell-based. Particulars: for hTRPV1-N1E Nav 0.1 mM (% inhibition) 25° C. / hTRPV1-N1E Nav 1 mM (% inhibition) 25° C.: 25° C. (no heat activation); for hTRPV1-N1E Nav 0.1 mM (% inhibition) 47° C. / hTRPV1-N1E Nav 1 mM (% inhibition) 47° C.: 47° C. (heat activated); for IC50: read-out: hTRPV1-N1E IC50 (μM) 47° C. The source says: In one embodiment, a modified FLIPR® (Fluorometric Imaging Plate Reader) based assay system was developed which is capable of discriminating between non-specific versus hTRPV1-mediated entry of test compounds. Advantageously, the assay system utilizes heat activated opening of hTRPV1 channels followed by an assessment of internal sodium channel block. The assay allows a permanently charged compound to selectively enter through opened hTRPV1 channels and that compound's potency in inhibiting sodium channels from the cytoplasm side of the same cell can be assessed and quantified.
The test compounds are diluted in the Assay Buffer and added to each well of a specific 384-well ‘compound plate’, which serves as a source plate for compound addition using the FLIPR® platform. The concentration of compounds in the compound-plate was adjusted to achieve the desired final concentration when added to the cells in the ‘cell-plate’. After completion of the dye incubation period, the dye loaded cell-plates and the compound source plates are inserted into the FLIPR® Tetra device with a 384 FLIPR® tip box (Molecular Devices, Inc.) according to manufacturer's instructions. The compounds are robotically added to the dye loaded cell-plates using software integral to the FLIPR® Tetra instrument.
Immediately following compound addition, hTRPV1 is activated, in one of the duplicate cell plates, by heating. Specifically, entire multi-well plate containing the compound-cells mixture is incubated at 47° C. for 10 minutes, after which they are returned to room temperature (about 25° C.) for a further 30 minutes. Heat activation of hTRPV1 was omitted from the replicate cell plate which was simply maintained at room temperature for the entire 40 minutes.
A membrane potential response is elicited in the dye- and compound-loaded cells by the addition of veratridine which is a known sodium channel ‘agonist’. As illustrated in an example herein, an agonist plate containing veratridine (Sigma) is prepared in advance and is inserted into suitable devices such as, e.g., the FLIPR® TETRA device for a “2nd addition” as instructed by the manufacturer. The concentration of veratridine in the ‘agonist plate’ was adjusted to achieve a final concentration of 100 μM when added to the cells in the cell-plate. Final concentrations of veratridine greater or lesser than 100 μM may also be used but the signal measured by the FLIPR® TETRA device or another suitable device may vary accordingly.
The exposure of the cells in the cell-plate to veratridine induces sodium channels in the cells to open and the resulting ion flux produces a membrane potential depolarization that is detected as a fluorescence signal by the FLIPR® Tetra Device. The activity of test compounds is determined by their ability to attenuate the veratridine-induced fluorescence signal, the most promising compounds are those that show an enhanced activity in the heat-activated cell plate over the non-heat-activated cell plate. This differential activity reflects enhanced compound uptake via the heat activated and open hTRPV1 channels and rests on the fact that sodium channel block requires test compounds to act from the cytoplasmic side of the cell membrane.
In vitro assays were developed for assessing the inhibition of sodium channel response with compounds following stimulation by heat (47° C.) in cells expressing hTRPV1.
(v) Membrane potential Assay to Assess Sodium Channel Function in hTRPV1-Expressing Cells • Cells were plated at 5000 per 50 μL [DMEM+10% FBS+300 μg/mL H\hygromycin] per well, in a 384 clear bottom poly-D-lysine coated plate and incubated at 37° C. and 5% CO2 for 48 hours. On the day of the assay, media were discarded gently and 30 μL of the dye [FMP blue dye was prepared in assay buffer] per well was added and dye-loading was allowed to proceed for 20 min at room temperature. […]

Structures are written as SMILES.

`CC[N+](CC)(CC(C)OC(=O)c1ccccc1)C1CCCCC1.[Cl-]` (stereo not shown) [Example 3, N-[2-(benzoyloxy)propyl]-N,N-diethylcyclohexanaminium chloride]: under “0.5 mM, 25° C.”, the “hTRPV1-N1E Nav (% inhibition) 25° C., 0.5 mM” value was 14 (N = 2, %. In addition, the “hTRPV1-N1E Nav (% inhibition) 47° C., 0.5 mM” value (0.5 mM, 47° C.) is listed as 19 (N = 2, %. For the same molecule, the “hTRPV1-N1E Nav (% inhibition) 25° C., 5 mM” value (5 mM, 25° C.) is given as 52 (N = 2, %. Besides, the “hTRPV1-N1E Nav (% inhibition) 47° C., 5 mM” value (5 mM, 47° C.) is listed as 67 (N = 2, %.

On to `CC(C[N+](C)(C)C1CCCCC1)OC(=O)c1ccc(C(C)C)cc1.[I-]` (stereo not shown) [Example 4, N-[2-((4-isopropylbenzoyl)oxy)propyl]-N,N-dimethylcyclohexanaminium iodide], for which the “hTRPV1-N1E Nav 0.1 mM (% inhibition) 25° C.” value is 24 (N = 4) % and the “hTRPV1-N1E Nav 0.1 mM (% inhibition) 47° C.” value was 86 (N = 4) %. In addition, the IC50 (commonly the midpoint of a concentration-inhibition curve) (47° C.) is 10 to 100 µM.

Consider `COc1cccc(OC)c1C(=O)OC(C)C[N+](C)(C)C1CCCCC1.[I-]` (stereo not shown) [Example 7, N-[2-((2,6-Dimethoxybenzoyl)oxy)propyl]-N,N-dimethyl-cyclohexanaminium iodide], for which the “hTRPV1-N1E Nav 0.1 mM (% inhibition) 25° C.” value is on record as 1 (N = 4) %, the “hTRPV1-N1E Nav 0.1 mM (% inhibition) 47° C.” value is listed as 28 (N = 4) %, the “hTRPV1-N1E Nav 1 mM (% inhibition) 25° C.” value is listed as 0 (N = 4) % and the “hTRPV1-N1E Nav 1 mM (% inhibition) 47° C.” value is given as 70 (N = 4) %.

For the molecule `CC(C[N+](C)(C)C1CCCCC1)OC(=O)c1ccccc1F.[I-]` (stereo not shown) [Example 8, N-[2-((2-Fluorobenzoyl)oxy)propyl]-N,N-dimethyl-cyclohexanaminium iodide], the “hTRPV1-N1E Nav 0.1 mM (% inhibition) 25° C.” value is recorded as 14 (N = 4) %, the “hTRPV1-N1E Nav 0.1 mM (% inhibition) 47° C.” value was 38 (N = 4) %, the “hTRPV1-N1E Nav 1 mM (% inhibition) 25° C.” value is 22 (N = 4) % and the “hTRPV1-N1E Nav 1 mM (% inhibition) 47° C.” value is reported as 53 (N = 4) %.

For `CC(C[N+](C)(C)C1CCCCC1)OC(=O)c1ccccc1Cl.[I-]` (stereo not shown) [Example 9, N-[2-((2-Chlorobenzoyl)oxy)propyl]-N,N-dimethyl-cyclohexanaminium iodide], the “hTRPV1-N1E Nav 0.1 mM (% inhibition) 25° C.” value is 16 (N = 4) % and the “hTRPV1-N1E Nav 0.1 mM (% inhibition) 47° C.” value is listed as 67 (N = 4) %.

In the case of `CC(C[N+](C)(C)C1CCCCC1)OC(=O)c1ccc(Cl)cc1Cl.[I-]` (stereo not shown) [Example 10, N-[2-((2,4-Dichlorobenzoyl)oxy)propyl]-N,N-dimethyl-cyclohexanaminium iodide], the “hTRPV1-N1E Nav 0.1 mM (% inhibition) 25° C.” value was 10 (N = 4) %, the “hTRPV1-N1E Nav 0.1 mM (% inhibition) 47° C.” value is recorded as 59 (N = 4) %, the “hTRPV1-N1E Nav 1 mM (% inhibition) 25° C.” value is given as 61 (N = 4) % and the “hTRPV1-N1E Nav 1 mM (% inhibition) 47° C.” value is on record as 95 (N = 4) %. The IC50 (47° C.) fell in the range of 100 to 1000 µM.

As to `Cc1ccccc1C(=O)OC(C)C[N+](C)(C)C1CCCCC1.[I-]` (stereo not shown) [Example 11, N,N-Dimethyl-N-[2-((2-methylbenzoyl)oxy)propyl] cyclohexanaminium iodide], the “hTRPV1-N1E Nav 0.1 mM (% inhibition) 25° C.” value was 16 (N = 4) % and the “hTRPV1-N1E Nav 0.1 mM (% inhibition) 47° C.” value is reported as 40 (N = 4) %. The IC50 (47° C.) lay within 100 to 1000 µM.

For `CC(C[N+](C)(C)C1CCCCC1)OC(=O)c1ccc(Cl)cc1.[I-]` (stereo not shown) [Example 13, N-[2-((4-Chlorobenzoyl)oxy)propyl]-N,N-dimethyl-cyclohexanaminium iodide], the “hTRPV1-N1E Nav 0.1 mM (% inhibition) 25° C.” value was 0 (N = 4) %, the “hTRPV1-N1E Nav 0.1 mM (% inhibition) 47° C.” value is recorded as 44 (N = 4) %, the “hTRPV1-N1E Nav 1 mM (% inhibition) 25° C.” value is 51 (N = 4) % and the “hTRPV1-N1E Nav 1 mM (% inhibition) 47° C.” value is reported as 89 (N = 4) %. In addition, the IC50 (47° C.) was 10 to 100 µM.

Consider `CC(C[N+](C)(C)C1CCCCC1)OC(=O)c1cccc(F)c1.[I-]` (stereo not shown) [Example 14, N-[2-((3-Fluorobenzoyl)oxy)propyl]-N,N-dimethyl-cyclohexanaminium iodide], for which the “hTRPV1-N1E Nav 0.1 mM (% inhibition) 25° C.” value was 0 (N = 4) %, the “hTRPV1-N1E Nav 0.1 mM (% inhibition) 47° C.” value is listed as 31 (N = 4) %, the “hTRPV1-N1E Nav 1 mM (% inhibition) 25° C.” value is 10 (N = 4) % and the “hTRPV1-N1E Nav 1 mM (% inhibition) 47° C.” value is given as 66 (N = 4) %.

With `CC(C[N+](C)(C)C1CCCCC1)OC(=O)c1ccc(F)cc1C(F)(F)F.[I-]` (stereo not shown) [Example 15, N-[2-((4-Fluoro-2-(trifluoromethyl)benzoyl)oxy)propyl]-N,N-dimethyl-cyclohexanaminium iodide], the “hTRPV1-N1E Nav 0.1 mM (% inhibition) 25° C.” value is 6 (N = 4) %, the “hTRPV1-N1E Nav 0.1 mM (% inhibition) 47° C.” value is reported as 45 (N = 4) %, the “hTRPV1-N1E Nav 1 mM (% inhibition) 25° C.” value is given as 59 (N = 4) % and the “hTRPV1-N1E Nav 1 mM (% inhibition) 47° C.” value is 92 (N = 4) %. Moreover, where the note is “47° C.”, the IC50 was in the range of 100 to 1000 µM.

`CC(C[N+](C)(C)C1CCCCC1)OC(=O)c1cccc(C(F)(F)F)c1.[I-]` (stereo not shown) [Example 16, N,N-Dimethyl-N-[2-((3-(trifluoromethyl)benzoyl)oxy)propyl] cyclohexanaminium iodide]: the “hTRPV1-N1E Nav 0.1 mM (% inhibition) 25° C.” value was 31 (N = 4) %, the “hTRPV1-N1E Nav 0.1 mM (% inhibition) 47° C.” value is on record as 60 (N = 4) %, the “hTRPV1-N1E Nav 1 mM (% inhibition) 25° C.” value is reported as 50 (N = 4) % and the “hTRPV1-N1E Nav 1 mM (% inhibition) 47° C.” value is reported as 83 (N = 4) %. Further, the IC50 (47° C.) is 100 to 1000 µM.

Take `CC(C[N+](C)(C)C1CCCCC1)OC(=O)c1ccccc1C(F)(F)F.[I-]` (stereo not shown) [Example 17, N-[2-((2-(Trifluoromethyl)benzoyl)oxy)propyl]-N,N-dimethylcyclo-hexanaminium iodide]: the “hTRPV1-N1E Nav 0.1 mM (% inhibition) 25° C.” value was 4 (N = 4) %, the “hTRPV1-N1E Nav 0.1 mM (% inhibition) 47° C.” value was 54 (N = 4) %, the “hTRPV1-N1E Nav 1 mM (% inhibition) 25° C.” value is 72 (N = 4) % and the “hTRPV1-N1E Nav 1 mM (% inhibition) 47° C.” value is recorded as 96 (N = 4) %. Under “47° C.”, the IC50 was 100 to 1000 µM.

For the molecule `CC(C[N+](C)(C)C1CCCCC1)OC(=O)c1ccccc1[N+](=O)[O-].[I-]` (stereo not shown) [Example 18, N,N-Dimethyl-N-[2-((2-nitrobenzoyl)oxy)propyl] cyclohexanaminium iodide], the “hTRPV1-N1E Nav 0.1 mM (% inhibition) 25° C.” value is 3 (N = 4) %, the “hTRPV1-N1E Nav 0.1 mM (% inhibition) 47° C.” value is 41 (N = 4) %, the “hTRPV1-N1E Nav 1 mM (% inhibition) 25° C.” value is listed as 28 (N = 4) % and the “hTRPV1-N1E Nav 1 mM (% inhibition) 47° C.” value is on record as 66 (N = 4) %.

On to `CC(C[N+](C)(C)C1CCCCC1)OC(=O)c1cc(Cl)cc(Cl)c1.[I-]` (stereo not shown) [Example 19, N-[2-((3,5-Dichlorobenzoyl)oxy)propyl]-N,N-dimethyl-cyclohexanaminium iodide], for which the “hTRPV1-N1E Nav 0.1 mM (% inhibition) 25° C.” value is on record as 25 (N = 4) %, the “hTRPV1-N1E Nav 1 mM (% inhibition) 25° C.” value is on record as 12 (N = 4) % and the “hTRPV1-N1E Nav 1 mM (% inhibition) 47° C.” value is listed as 52 (N = 4) %. Besides, the IC50 (47° C.) fell in the range of 10 to 100 µM.

Regarding `CCc1ccc(C(=O)OC(C)C[N+](C)(C)C2CCCCC2)cc1.[I-]` (stereo not shown) [Example 20, N-[2-((4-Ethylbenzoyl)oxy)propyl]-N,N-dimethyl-cyclohexanaminium iodide], the “hTRPV1-N1E Nav 0.1 mM (% inhibition) 25° C.” value is listed as 14 (N = 4) %, the “hTRPV1-N1E Nav 0.1 mM (% inhibition) 47° C.” value is 77 (N = 4) %, the “hTRPV1-N1E Nav 1 mM (% inhibition) 25° C.” value is 46 (N = 4) % and the “hTRPV1-N1E Nav 1 mM (% inhibition) 47° C.” value is 95 (N = 4) %. Further, the 50% inhibitory concentration (IC50) (47° C.) fell in the range of 10 to 100 µM.

Take `CC(C[N+](C)(C)C1CCCCC1)OC(=O)c1ccc(C(F)(F)F)cc1.[I-]` (stereo not shown) [Example 21, N,N-Dimethyl-N-[2-((4-(trifluoromethyl)benzoyl)oxy)propyl] cyclohexanaminium iodide]: the “hTRPV1-N1E Nav 0.1 mM (% inhibition) 25° C.” value is recorded as 11 (N = 4) %, the “hTRPV1-N1E Nav 0.1 mM (% inhibition) 47° C.” value was 57 (N = 4) %, the “hTRPV1-N1E Nav 1 mM (% inhibition) 25° C.” value is given as 35 (N = 4) % and the “hTRPV1-N1E Nav 1 mM (% inhibition) 47° C.” value was 96 (N = 4) %. Also, the IC50 (47° C.) lay in the range of 100 to 1000 µM.
